Results on 14 molecules are retold here after patent publication US6426355B1, “Heterocyclic carboxamide-containing thiourea inhibitors of herpes viruses containing phenylenediamine group” (American Home Products, priority 1998, dated 2002).

≈ marks a conversion by molar mass, not a printed value. A value given as a limit tells only on which side of the number the result lay.

Assay [1] relates to HCMV recombinant mutant virus (RV145). Put plainly: HCMV microtiter plate assay (beta-glucuronidase reporter). In kind it is cell-based, Human Cytomegalovirus. The conditions noted are these: for IC50: Human betaherpesvirus 5, Fibroblast, read-out: IC50 (ug/ml) HCMV. An outline of the steps: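 Replication was read out as virus-encoded β-glucuronidase activity, measured with a chromogenic or fluorogenic glucuronide substrate in cell lysates at 96 h post-infection. Infection of human foreskin fibroblasts with RV145 took place with compound present. IC50 was derived from a range of inhibitor amounts.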

Assay [2] deals with HSV-1. Put plainly: HSV Antiviral (ELISA) assay. In kind it is cell-based. The note with it: for IC50: Human alphaherpesvirus 1, HSV-1 in Vero cells, read-out: IC50 (ug/ml) HSV. The method, boiled down:
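Replication measured as glycoprotein D signal in fixed cells: anti-gD antibody plus β-galactosidase-linked secondary, fluorogenic substrate read at 365/450 nm. Vero cells (2% FBS DMEM) received compound 30 min pre-infection, HSV-1 MOI 0.006, ~24 h incubation; IC50 relative to no-compound fluorescence.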

In assay [3] the test system is VZV strain Ellen. Put plainly: VZV Antiviral (ELISA) assay. In kind it is cell-based. The conditions noted are these: for IC50: Human alphaherpesvirus 3, VZV strain Ellen in HFF cells, read-out: IC50 (ug/ml) VZV. The method, boiled down: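 Cell-based ELISA: infected/uninfected HFF mix (VZV Ellen, MOI <0.1) exposed to compound in DMEM/2% FBS for 3 days at 37° C. Anti-gpII monoclonal plus β-galactosidase-linked secondary, detected as 4-methylumbelliferone fluorescence; IC50 derived by comparing fluorescence with versus without compound.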
(In an ELISA, binding on a coated surface is turned into a signal by an enzyme label.)

As for `CC(C)c1nc(C(=O)Nc2ccc(NC(=S)Nc3cc(Cl)cc(Cl)c3)cc2)cs1` [Example 1131, 2-Isopropyl-thiazole-4-carboxylic acid {4-[3-(3,5-dichloro-phenyl)-thioureido]-phenyl}-amide], the IC50 was 1.5 µg/mL (≈ 3.22 µM) in assay [1], 2.2 µg/mL (≈ 4.73 µM) in assay [2] and 9 µg/mL (≈ 19.3 µM) in assay [3].

Turning to `CC(C)c1nc(C(=O)Nc2ccc(NC(=S)Nc3ccc(Cl)c(Cl)c3)cc2)cs1` [Example 1132, 2-Isopropyl-thiazole-4-carboxylic acid {4-[3-(3,4-dichloro-phenyl)-thioureido]-phenyl}-amide], the IC50 stood at 1.2 µg/mL (≈ 2.58 µM) in assay [1], 2.6 µg/mL (≈ 5.59 µM) in assay [2] and 3.9 µg/mL (≈ 8.38 µM) in assay [3].

Take `CC(C)c1nc(C(=O)Nc2ccc(NC(=S)Nc3cc(C(F)(F)F)cc(C(F)(F)F)c3)cc2)cs1` [Example 1133, 2-Isopropyl-thiazole-4-carboxylic acid {4-[3-(3,5 bis-trifluoromethyl-phenyl)-thioureido]-phenyl}-amide]: the IC50 was 1.5 µg/mL (≈ 2.82 µM) in assay [1], 6 µg/mL (≈ 11.3 µM) in assay [2] and over 10 µg/mL in assay [3].

For `CCCCc1nc(C(=O)Nc2ccc(NC(=S)Nc3ccc(Cl)c(Cl)c3)cc2)cs1` [Example 1134, 2-Butyl-thiazole-4-carboxylic acid {4-[3-(3,4-dichloro-phenyl)-thioureido]-phenyl}-amide], the IC50 in assay [1] was determined as 1 µg/mL (≈ 2.09 µM); in assay [2] it was 2.4 µg/mL (≈ 5.01 µM); in assay [3], 1.6 µg/mL (≈ 3.34 µM).

As for `CCCCc1nc(C(=O)Nc2ccc(NC(=S)Nc3ccc(Cl)c(C(F)(F)F)c3)cc2)cs1` [Example 1135, 2-Butyl-thiazole-4-carboxylic acid {4-[3-(4-chloro-3-trifluoromethyl-phenyl)-thioureido]-phenyl}-amide], the IC50 came to 1.3 µg/mL (≈ 2.53 µM) in assay [1], 3.6 µg/mL (≈ 7.02 µM) in assay [2] and 7.5 µg/mL (≈ 14.6 µM) in assay [3].

In the case of `CCCCc1nc(C(=O)Nc2ccc(NC(=S)Nc3cc(Cl)cc(Cl)c3)cc2)cs1` [Example 1136, 2-Butyl-thiazole-4-carboxylic acid {4-[3-(3,5-dichloro-phenyl)-thioureido]-phenyl}-amide], the results for the IC50 in assay [1], in assay [2] and in assay [3] were 1.6 µg/mL (≈ 3.34 µM), 2.9 µg/mL (≈ 6.05 µM) and 5 µg/mL (≈ 10.4 µM), respectively.

In the case of `CCCCc1nc(C(=O)Nc2ccc(NC(=S)Nc3cc(C(F)(F)F)cc(C(F)(F)F)c3)cc2)cs1` [Example 1137, 2-Butyl-thiazole-4-carboxylic acid {4-[3-(3,5-bis-trifluoromethyl-phenyl)-thioureido]-phenyl}-amide], the results for the IC50 in assay [1], in assay [2] and in assay [3] were 0.6 µg/mL (≈ 1.1 µM), over 10 µg/mL and 3.5 µg/mL (≈ 6.4 µM), respectively.

Consider `Cc1nc(C(=O)Nc2ccc(NC(=S)Nc3cc(Cl)cc(Cl)c3)cc2)cs1` [Example 1138, 2-Methyl-thiazole-4-carboxylic acid {4-[3-(3,5-dichloro-phenyl)-thioureido]-phenyl}-amide], for which the IC50 in assay [1] was 0.65 µg/mL (≈ 1.49 µM); in assay [2] it was over 10 µg/mL; in assay [3], over 10 µg/mL.

As to `Cc1nc(C(=O)Nc2ccc(NC(=S)Nc3ccc(Cl)c(Cl)c3)cc2)cs1` [Example 1139, 2-Methyl-thiazole-4-carboxylic acid {4-[3-(3,4-dichloro-phenyl)-thioureido]-phenyl}-amide], the values for the IC50 in assay [1], in assay [2] and in assay [3] were 1.2 µg/mL (≈ 2.74 µM), 3.7 µg/mL (≈ 8.46 µM) and 6 µg/mL (≈ 13.7 µM), respectively.

On to `Cc1nc(C(=O)Nc2ccc(NC(=S)Nc3cc(C(F)(F)F)cc(C(F)(F)F)c3)cc2)cs1` [Example 1140, 2-Methyl-thiazole-4-carboxylic acid {4-[3-(3,5-bis-trifluoromethyl-phenyl)-thioureido]-phenyl}-amide], for which the IC50 in assay [1] turned out to be 1.6 µg/mL (≈ 3.17 µM); in assay [2] it was 3.5 µg/mL (≈ 6.94 µM); in assay [3], 4 µg/mL (≈ 7.93 µM).

Consider `O=C(Nc1ccc(NC(=S)Nc2ccc(Cl)c(C(F)(F)F)c2)cc1)c1csc(-c2ccccc2)n1` [Example 1141, 2-Phenyl-thiazole-4-carboxylic acid {4-[3-(4-chloro-3-trifluoromethyl-phenyl)-thioureido]-phenyl}-amide], for which the IC50 in assay [1] is 1.9 µg/mL (≈ 3.56 µM); in assay [2], over 10 µg/mL; in assay [3], over 10 µg/mL.

On to `O=C(Nc1ccc(NC(=S)Nc2cc(Cl)cc(Cl)c2)cc1)c1csc(-c2ccccc2)n1` [Example 1142, 2-Phenyl-thiazole-4-carboxylic acid {4-[3-(3,5-dichloro-phenyl)-thioureido]-phenyl}-amide], for which the figures for the IC50 in assay [1], in assay [2] and in assay [3] were 1.8 µg/mL (≈ 3.6 µM), over 10 µg/mL and over 10 µg/mL, respectively.

For `O=C(Nc1ccc(NC(=S)Nc2ccc(Cl)c(Cl)c2)cc1)c1csc(-c2ccccc2)n1` [Example 1143, 2-Phenyl-thiazole-4-carboxylic acid {4-[3-(3,4-dichloro-phenyl)-thioureido]-phenyl}-amide], the IC50 was 7.5 µg/mL (≈ 15 µM) in assay [1], over 10 µg/mL in assay [2] and over 10 µg/mL in assay [3].

In the case of “[1,2,3]Thiadiazole-4-carboxylic acid {4-[3-(3,4,5-chloro-4-isoxazol-5-yl-phenyl)-thioureido]-phenyl}-amide [Example 990]”, the “IC50 (ug/ml) HCMV” value in assay [1] (HCMV in human foreskin fibroblasts) was 0.011 µg/mL. Moreover, the “IC50 (ug/ml) HSV” value in assay [2] (HSV-1 in Vero cells) is 8 µg/mL. The “IC50 (ug/ml) VZV” value in assay [3] (VZV strain Ellen in HFF cells) was determined as 4.5 µg/mL. The “% inhibition 10 ug/ml VZV” value in assay [3] (at 10 ug/ml, VZV strain Ellen in HFF cells) was 99%.
